Assay results taken from publication PMC6155273, “Antiprotozoal Activity of Triazole Derivatives of Dehydroabietic Acid and Oleanolic Acid” (Molecules : A Journal of Synthetic Chemistry and Natural …, 2017).
≈ marks a conversion by molar mass, not a printed value.

System: T. cruzi epimastigotes
Experiment: Antiepimastigote activity, T. cruzi CL-B5 lacZ (CPRG)
Type: cell-based, Trypanosoma cruzi
Conditions: Trypanosoma cruzi, clone CL-B5, 72 h
Procedure: For in vitro studies of T. cruzi, the clone CL-B5 was used (donated by Faculty of Pharmacy, Complutense University, Madrid, Spain). Parasites were stably transfected with the Escherichia coli β-galactosidase gene (lacZ). Epimastigotes were grown at 28 °C in liver infusion tryptose broth (Difco, Detroit, MI, USA) with 10% fetal bovine serum (FBS) (Gibco, Carlsbad, CA, USA), penicillin (Ern S.A., Barcelona, Spain), and streptomycin (Reig Jofré S.A., Barcelona, Spain), as described previously, and harvested during the exponential growth phase. Briefly, the screening assay was performed in 96-well microplates (Sarstedt, Inc., Newton, NC, USA) with cultures that had not reached the stationary phase. Epimastigotes were seeded at 2 × 10^5 parasites/mL in 200 µL growth media. The plates were then incubated with the respective compounds at 28 °C for 72 h; afterwards, 50 µL of chlorophenol red-β-D-galactopyranoside (CPRG) solution was added, resulting in a final concentration of 200 µM. The plates were incubated at 37 °C for an additional 4 h and then read at 595 nm. Each concentration was tested in triplicate. The efficacy of each compound was estimated by calculating the IC50 values. These values were calculated by the sigmoidal dose–response curve adjustment using the statistical software program Graph-Pad Prims 3.0 (GraphPhad, San Diego, CA, USA). Benznidazole was used as the reference drug.

First: CC(C)c1ccc2c(c1)CCC1[C@](C)(COC(=O)CCc3cn(-c4ccccc4)nn3)CCC[C@]21C (some centres unmarked) [Compound 5]
Second: CC(C)c1ccc2c(c1)CCC1[C@](C)(C(=O)OCc3cn(-c4ccccc4)nn3)CCC[C@]21C (some centres unmarked) [Compound 1]
The IC50 of the first is 4.8-fold higher: 223 µg/mL (≈ 459 µM) for the first, 46 µg/mL (≈ 101 µM) for the second.

Compared with `C#CCCC(=O)O[C@H]1CC[C@@]2(C)C(CC[C@]3(C)C2CC=C2[C@@H]4CC(C)(C)CC[C@]4(C(=O)O)CC[C@]23C)C1(C)C` (some centres unmarked) [Compound 17], `C#CCCCC(=O)O[C@H]1CC[C@@]2(C)C(CC[C@]3(C)C2CC=C2[C@@H]4CC(C)(C)CC[C@]4(C(=O)OC)CC[C@]23C)C1(C)C` (some centres unmarked) [Compound 20] is higher in IC50: 252 µg/mL (≈ 469 µM) for the first, over 256 µg/mL for the second.

Going from `CC(C)c1ccc2c(c1)CCC1[C@](C)(C(=O)OCCc3cn(CSc4ccccc4)nn3)CCC[C@]21C` (some centres unmarked) [Compound 4] to `Cc1ccc(S(=O)(=O)n2cc(CCCCC(=O)OC[C@]3(C)CCC[C@]4(C)c5ccc(C(C)C)cc5CCC34)nn2)cc1` (some centres unmarked) [Compound 16], the IC50 rises from 61 µg/mL (≈ 118 µM) to 199 µg/mL (≈ 336 µM) (3.3-fold).

Compared with `Cc1ccc(S(=O)(=O)n2cc(CCCC(=O)O[C@H]3CC[C@@]4(C)C(CC[C@]5(C)C4CC=C4[C@@H]6CC(C)(C)CC[C@]6(C(=O)O)CC[C@]45C)C3(C)C)nn2)cc1` (some centres unmarked) [Compound 31], `COC(=O)[C@]12CCC(C)(C)C[C@H]1C1=CCC3[C@@]4(C)CC[C@H](OC(=O)CCc5cn(S(=O)(=O)c6ccc(C)cc6)nn5)C(C)(C)C4CC[C@@]3(C)[C@]1(C)CC2` (some centres unmarked) [Compound 28] is lower in IC50: over 256 µg/mL for the first, 61 µg/mL (≈ 81.5 µM) for the second.

System: L. braziliensis promastigotes
Experiment: Leishmanicidal activity on L. braziliensis promastigotes (resazurin)
Type: cell-based, Leishmania braziliensis
Conditions: Leishmania braziliensis, 48 h, read-out: Leishmanicidal Activity on Promastigotes, L. braziliensis, IC50
Procedure: (§1) Culture of L. braziliensis (MHOM/BR/75/M2904), and L. infantum (MHOM/FR/91/LEM2259V) was obtained from the Facultad de Farmacia (Universidad Complutense de, Madrid, Spain). The maintenance of the strains, the form of cultivation, and the isolation of shape promastigota were performed following the procedures described by Roldos et al.. The promastigotes were grown at 22 °C in Schneider’s Drosophila medium supplemented with 20% FBS. The assay was performed using a modification of a previous method. Promastigotes (2 × 10^6 parasites/well) were cultured in 96-well plastic plates. Compounds were dissolved in dimethylsulfoxide (DMSO). Different dilutions of the compounds with a final volume up to 200 µL were added. After 48 h at 26 °C, 20 µL of a 2 mM resazurin solution was added, and the oxidation-reduction was quantified at 570 and 600 nm. The solution of resazurin was prepared at 2.5 mM in phosphate buffered solution (PBS), pH 7.4, and filtered through 0.22 µm prior to use. All tests were carried out in triplicate. Resazurin sodium salt was obtained from Sigma-Aldrich (St. Louis, MO, USA) and stored at 4 °C protected from light. The efficacy of each compound was estimated by calculating the IC50 values.

`Cc1ccc(S(=O)(=O)n2cc(CCCC(=O)O[C@H]3CC[C@@]4(C)C(CC[C@]5(C)C4CC=C4[C@@H]6CC(C)(C)CC[C@]6(C(=O)O)CC[C@]45C)C3(C)C)nn2)cc1` (some centres unmarked) [Compound 31] and `C#CCCCC(=O)O[C@H]1CC[C@@]2(C)C(CC[C@]3(C)C2CC=C2[C@@H]4CC(C)(C)CC[C@]4(C(=O)OC)CC[C@]23C)C1(C)C` (some centres unmarked) [Compound 20] cannot be ordered by IC50: over 256 µg/mL for the first, over 256 µg/mL for the second.

Same assay, conditions: Leishmania braziliensis; promastigotes, 48 h; read-out: Leishmanicidal Activity on Promastigotes, L. braziliensis, IC50

Compared with `CC(C)c1ccc2c(c1)CCC1[C@](C)(COC(=O)CCc3cn(-c4ccccc4)nn3)CCC[C@]21C` (some centres unmarked) [Compound 5], `CC(C)c1ccc2c(c1)CCC1[C@](C)(C(=O)OCc3cn(-c4ccccc4)nn3)CCC[C@]21C` (some centres unmarked) [Compound 1] is 4.1-fold lower in IC50: 218 µg/mL (≈ 449 µM) for the first, 53 µg/mL (≈ 116 µM) for the second.

`C#CCCC(=O)O[C@H]1CC[C@@]2(C)C(CC[C@]3(C)C2CC=C2[C@@H]4CC(C)(C)CC[C@]4(C(=O)O)CC[C@]23C)C1(C)C` (some centres unmarked) [Compound 17] and `COC(=O)[C@]12CCC(C)(C)C[C@H]1C1=CCC3[C@@]4(C)CC[C@H](OC(=O)CCc5cn(S(=O)(=O)c6ccc(C)cc6)nn5)C(C)(C)C4CC[C@@]3(C)[C@]1(C)CC2` (some centres unmarked) [Compound 28] cannot be ordered by IC50: over 256 µg/mL for the first, over 256 µg/mL for the second.

`CC(C)c1ccc2c(c1)CCC1[C@](C)(C(=O)OCCc3cn(CSc4ccccc4)nn3)CCC[C@]21C` (some centres unmarked) [Compound 4] and `Cc1ccc(S(=O)(=O)n2cc(CCCCC(=O)OC[C@]3(C)CCC[C@]4(C)c5ccc(C(C)C)cc5CCC34)nn2)cc1` (some centres unmarked) [Compound 16] are within 1.5-fold of each other in IC50: 64 µg/mL (≈ 124 µM) for the first, 71 µg/mL (≈ 120 µM) for the second.

System: L. infantum promastigotes
Experiment: Leishmanicidal activity on L. infantum promastigotes (resazurin)
Type: cell-based, Leishmania infantum
Conditions: Leishmania infantum, 48 h, read-out: Leishmanicidal Activity on Promastigotes, L. infantum, IC50
Procedure: as §1

With `C#CCCCC(=O)O[C@H]1CC[C@@]2(C)C(CC[C@]3(C)C2CC=C2[C@@H]4CC(C)(C)CC[C@]4(C(=O)OC)CC[C@]23C)C1(C)C` (some centres unmarked) [Compound 20] the IC50 was over 256 µg/mL.

Same assay, conditions: Leishmania infantum; promastigotes, 48 h; read-out: Leishmanicidal Activity on Promastigotes, L. infantum, IC50

Compared with `CC(C)c1ccc2c(c1)CCC1[C@](C)(COC(=O)CCc3cn(-c4ccccc4)nn3)CCC[C@]21C` (some centres unmarked) [Compound 5], `CC(C)c1ccc2c(c1)CCC1[C@](C)(C(=O)OCc3cn(-c4ccccc4)nn3)CCC[C@]21C` (some centres unmarked) [Compound 1] is 3.2-fold lower in IC50: 193 µg/mL (≈ 397 µM) for the first, 60 µg/mL (≈ 131 µM) for the second.

Compared with `C#CCCC(=O)O[C@H]1CC[C@@]2(C)C(CC[C@]3(C)C2CC=C2[C@@H]4CC(C)(C)CC[C@]4(C(=O)O)CC[C@]23C)C1(C)C` (some centres unmarked) [Compound 17], `Cc1ccc(S(=O)(=O)n2cc(CCCC(=O)O[C@H]3CC[C@@]4(C)C(CC[C@]5(C)C4CC=C4[C@@H]6CC(C)(C)CC[C@]6(C(=O)O)CC[C@]45C)C3(C)C)nn2)cc1` (some centres unmarked) [Compound 31] is lower in IC50: over 256 µg/mL for the first, 128 µg/mL (≈ 171 µM) for the second.

`CC(C)c1ccc2c(c1)CCC1[C@](C)(C(=O)OCCc3cn(CSc4ccccc4)nn3)CCC[C@]21C` (some centres unmarked) [Compound 4] and `Cc1ccc(S(=O)(=O)n2cc(CCCCC(=O)OC[C@]3(C)CCC[C@]4(C)c5ccc(C(C)C)cc5CCC34)nn2)cc1` (some centres unmarked) [Compound 16] are within 1.5-fold of each other in IC50: 64 µg/mL (≈ 124 µM) for the first, 73 µg/mL (≈ 123 µM) for the second.

With `COC(=O)[C@]12CCC(C)(C)C[C@H]1C1=CCC3[C@@]4(C)CC[C@H](OC(=O)CCc5cn(S(=O)(=O)c6ccc(C)cc6)nn5)C(C)(C)C4CC[C@@]3(C)[C@]1(C)CC2` (some centres unmarked) [Compound 28] the IC50 was over 256 µg/mL.

System: not listed separately
Experiment: Cytotoxicity on NCTC-Clone 929 fibroblasts (resazurin)
Type: cell-based
Conditions: mouse
Procedure: The cell line used was NCTC-Clone 929, which was grown in Minimal Essential Medium (Sigma) supplemented with 10% heat-inactivated FBS, penicillin G (100 U/mL), and streptomycin (100 µg/mL). Cell cultures were maintained at 37 °C in a humidified 5% CO2 atmosphere. The procedure for cell viability measurement was evaluated with resazurin by a colorimetric method. The cells were plated in 96-microtiter plates at 3 × 10^4 cells per well in a 100 µL growth medium. The cells were grown overnight at 37 °C, 5% CO2. Thereafter, the medium was removed and the compounds were added in a 200 µL medium for 24 h. After incubation, 20 µL of a 2 mM resazurin solution was added to each well. The plates were incubated for 3 h to allow optimal oxidation-reduction. The reduction of resazurin was determined by dual wavelength absorbance measurement at 490 and 595 nm. Background was subtracted. Each concentration was assayed three times. Medium and drug controls were used in each test as blanks.

`CC(C)c1ccc2c(c1)CCC1[C@](C)(COC(=O)CCc3cn(-c4ccccc4)nn3)CCC[C@]21C` (some centres unmarked) [Compound 5] and `CC(C)c1ccc2c(c1)CCC1[C@](C)(C(=O)OCc3cn(-c4ccccc4)nn3)CCC[C@]21C` (some centres unmarked) [Compound 1] cannot be ordered by IC50 at 24 h: over 256 µg/mL for the first, over 256 µg/mL for the second.

Going from `C#CCCC(=O)O[C@H]1CC[C@@]2(C)C(CC[C@]3(C)C2CC=C2[C@@H]4CC(C)(C)CC[C@]4(C(=O)O)CC[C@]23C)C1(C)C` (some centres unmarked) [Compound 17] to `C#CCCCC(=O)O[C@H]1CC[C@@]2(C)C(CC[C@]3(C)C2CC=C2[C@@H]4CC(C)(C)CC[C@]4(C(=O)OC)CC[C@]23C)C1(C)C` (some centres unmarked) [Compound 20], the IC50 at 24 h rises from 196 µg/mL (≈ 365 µM) to over 256 µg/mL.

`CC(C)c1ccc2c(c1)CCC1[C@](C)(C(=O)OCCc3cn(CSc4ccccc4)nn3)CCC[C@]21C` (some centres unmarked) [Compound 4] and `Cc1ccc(S(=O)(=O)n2cc(CCCCC(=O)OC[C@]3(C)CCC[C@]4(C)c5ccc(C(C)C)cc5CCC34)nn2)cc1` (some centres unmarked) [Compound 16] are within 1.5-fold of each other in IC50 at 24 h: 189 µg/mL (≈ 365 µM) for the first, 129 µg/mL (≈ 218 µM) for the second.

`Cc1ccc(S(=O)(=O)n2cc(CCCC(=O)O[C@H]3CC[C@@]4(C)C(CC[C@]5(C)C4CC=C4[C@@H]6CC(C)(C)CC[C@]6(C(=O)O)CC[C@]45C)C3(C)C)nn2)cc1` (some centres unmarked) [Compound 31] and `COC(=O)[C@]12CCC(C)(C)C[C@H]1C1=CCC3[C@@]4(C)CC[C@H](OC(=O)CCc5cn(S(=O)(=O)c6ccc(C)cc6)nn5)C(C)(C)C4CC[C@@]3(C)[C@]1(C)CC2` (some centres unmarked) [Compound 28] cannot be ordered by IC50 at 24 h: over 256 µg/mL for the first, over 256 µg/mL for the second.
